Measured values published in patent US20100240683A1, “COMBINATION THERAPY, COMPOSITION AND METHODS FOR THE TREATMENT OF CARDIOVASCULAR DISORDERS” (Syndromex Ltd., priority 2007, published 2010).
Entries after “also recorded” stand apart in the source; their conditions may differ. Where two headings read alike, the source gives them in different places.

How the values were obtained:
[1] = target: T1, CYP2B6 (Homo sapiens, UniProt P20813); assay: Fluorimetric CYP inhibition assay, CYP2B6-EFC
T1 sequence (P20813 1-491): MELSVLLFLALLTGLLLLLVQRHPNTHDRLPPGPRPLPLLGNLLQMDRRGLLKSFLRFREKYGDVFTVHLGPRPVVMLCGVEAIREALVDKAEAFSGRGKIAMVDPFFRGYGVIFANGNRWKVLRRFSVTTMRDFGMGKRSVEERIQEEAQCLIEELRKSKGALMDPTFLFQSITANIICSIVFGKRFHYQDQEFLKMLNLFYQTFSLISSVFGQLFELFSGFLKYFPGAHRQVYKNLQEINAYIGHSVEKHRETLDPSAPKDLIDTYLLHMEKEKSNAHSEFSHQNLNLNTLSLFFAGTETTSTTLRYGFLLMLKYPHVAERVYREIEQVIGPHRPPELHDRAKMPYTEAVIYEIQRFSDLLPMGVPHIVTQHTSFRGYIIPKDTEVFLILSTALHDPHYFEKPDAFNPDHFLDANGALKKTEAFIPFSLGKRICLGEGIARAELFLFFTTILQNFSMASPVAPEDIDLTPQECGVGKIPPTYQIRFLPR

[2] = target: CYP2C9 (Homo sapiens, UniProt P11712); assay: in vitro
Chain of CYP2C9 (P11712 whole entry): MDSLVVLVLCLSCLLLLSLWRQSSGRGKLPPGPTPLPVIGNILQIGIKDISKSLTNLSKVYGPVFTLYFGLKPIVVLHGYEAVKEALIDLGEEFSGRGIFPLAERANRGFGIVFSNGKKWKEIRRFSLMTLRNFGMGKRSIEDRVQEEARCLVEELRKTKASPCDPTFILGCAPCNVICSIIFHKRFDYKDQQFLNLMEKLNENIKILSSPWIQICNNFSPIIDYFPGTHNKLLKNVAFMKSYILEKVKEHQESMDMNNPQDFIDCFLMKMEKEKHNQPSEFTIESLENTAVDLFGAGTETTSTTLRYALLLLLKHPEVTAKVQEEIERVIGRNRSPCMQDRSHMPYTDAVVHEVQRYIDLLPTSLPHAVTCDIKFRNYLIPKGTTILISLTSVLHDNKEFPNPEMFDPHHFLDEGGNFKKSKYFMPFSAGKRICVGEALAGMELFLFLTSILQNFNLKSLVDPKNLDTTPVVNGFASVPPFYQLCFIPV

[3] = target: CYP2D6 (Homo sapiens, UniProt P10635); assay: Fluorimetric CYP inhibition assay, CYP2D6-AMMC
Chain of CYP2D6 (P10635 whole entry): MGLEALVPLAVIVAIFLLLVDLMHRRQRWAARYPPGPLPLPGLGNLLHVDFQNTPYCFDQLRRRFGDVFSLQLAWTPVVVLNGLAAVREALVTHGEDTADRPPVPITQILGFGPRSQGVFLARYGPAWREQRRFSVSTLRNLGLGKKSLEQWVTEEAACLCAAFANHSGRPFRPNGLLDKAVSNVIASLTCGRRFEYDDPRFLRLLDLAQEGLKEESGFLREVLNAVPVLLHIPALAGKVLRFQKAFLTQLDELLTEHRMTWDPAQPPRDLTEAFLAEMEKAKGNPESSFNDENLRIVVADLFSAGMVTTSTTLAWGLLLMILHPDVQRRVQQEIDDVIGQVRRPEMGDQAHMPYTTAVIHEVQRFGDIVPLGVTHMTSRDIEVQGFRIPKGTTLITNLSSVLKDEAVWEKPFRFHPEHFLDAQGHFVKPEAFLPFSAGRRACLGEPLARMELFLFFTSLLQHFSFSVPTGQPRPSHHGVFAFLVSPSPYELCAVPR

[4] = test system: Guinea pigs; assay: Hypolipidemic effect in Guinea pigs model (plasma TG, cholesterol, lipoproteins); format: in vivo, Guinea pig; details: for effect on plasma cholesterol / effect on plasma triglycerides (TG): gavage, days 21 and 22, result in words
Procedure: • Guinea pigs (400-500 g) were obtained from Harlan (Israel) or Harlan (Netherlands). Animals were treated by gavage with Medica 16αα, Medica 16ββ and Simvastatin as indicated in 1% CMC for the specified treatment periods. During treatment period the animals were weighed and observed daily.
Non-fasted guinea pigs were anesthetized with ketamine (75 mg/kg body weight) and xylazine (6 mg/kg body weight), followed by S.C. abdominal injections of 2% lignocaine. Anesthetized animals were bled into tubes containing EDTA. Plasma chylomicrons were removed by centrifugation (20 min, 30K rpm, TST 55.5 rotor). Plasma TG was assayed by Roche/Hitachi kit. Plasma cholesterol was assayed by Roche Diagnostic's kit.
Chylomicrons-free plasma was subjected to continuous KBr-gradient centrifugation (24 h, 40K rpm, SW41 rotor), followed by fractionating gradient tubes into 0.5 ml fractions. TG, cholesterol and protein of each fraction were measured as described above. […]
Guinea pigs were treated by gavage with M16αα, M16ββ or with Simvastatin, weighed and observed daily. Plasma triglycerides (TG) and cholesterol, as well as plasma lipoproteins and their composition were examined on days 21 and 22 (as specified in the following tables) of the experiments, as described in Experimental procedures. As clearly shown by Table 3 and FIG. 1, treatment with M16αα decreases plasma triglycerides (TG).

[5] = target: T1, CYP2B6; assay: in vitro
[6] = target: T2, CYP3A4 (Homo sapiens, UniProt P08684); assay: in vitro
T2 sequence (P08684 whole entry): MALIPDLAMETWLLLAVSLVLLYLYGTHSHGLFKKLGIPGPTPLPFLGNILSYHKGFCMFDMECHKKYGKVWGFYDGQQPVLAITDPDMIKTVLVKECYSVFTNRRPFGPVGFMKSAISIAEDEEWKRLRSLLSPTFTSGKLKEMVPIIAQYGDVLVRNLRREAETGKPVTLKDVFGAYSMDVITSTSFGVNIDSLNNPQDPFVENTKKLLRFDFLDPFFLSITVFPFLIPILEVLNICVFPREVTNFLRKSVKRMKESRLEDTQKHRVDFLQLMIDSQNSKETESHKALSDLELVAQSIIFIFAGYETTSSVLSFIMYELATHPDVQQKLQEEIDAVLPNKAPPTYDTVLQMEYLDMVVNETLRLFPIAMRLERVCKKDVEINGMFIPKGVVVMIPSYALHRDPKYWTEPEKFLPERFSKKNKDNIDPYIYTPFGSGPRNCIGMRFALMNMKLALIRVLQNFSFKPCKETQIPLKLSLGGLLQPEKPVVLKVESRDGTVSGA

[7] = target: T3, CYP2C8 (Homo sapiens, UniProt P10632); assay: biochemical
T3 sequence (P10632 1-490): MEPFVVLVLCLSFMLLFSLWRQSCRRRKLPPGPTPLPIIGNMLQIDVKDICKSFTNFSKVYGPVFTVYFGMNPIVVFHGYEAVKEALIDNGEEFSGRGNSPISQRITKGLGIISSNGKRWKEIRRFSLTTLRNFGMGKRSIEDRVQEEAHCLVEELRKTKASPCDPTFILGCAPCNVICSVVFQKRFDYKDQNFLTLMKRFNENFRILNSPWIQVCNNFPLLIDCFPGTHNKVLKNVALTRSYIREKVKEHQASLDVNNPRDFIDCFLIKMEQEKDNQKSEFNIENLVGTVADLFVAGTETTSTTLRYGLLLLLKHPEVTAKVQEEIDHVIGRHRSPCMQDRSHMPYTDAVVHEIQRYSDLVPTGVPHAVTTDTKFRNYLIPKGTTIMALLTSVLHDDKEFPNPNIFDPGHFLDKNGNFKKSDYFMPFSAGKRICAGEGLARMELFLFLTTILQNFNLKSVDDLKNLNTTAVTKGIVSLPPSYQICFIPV

[8] = target: T3, CYP2C8; assay: in vitro
[9] = target: T2, CYP3A4
[10] = target: CYP2C19 (Homo sapiens, UniProt P33261); assay: Fluorimetric CYP inhibition assay, CYP2C19-CEC
Chain of CYP2C19 (P33261 whole entry): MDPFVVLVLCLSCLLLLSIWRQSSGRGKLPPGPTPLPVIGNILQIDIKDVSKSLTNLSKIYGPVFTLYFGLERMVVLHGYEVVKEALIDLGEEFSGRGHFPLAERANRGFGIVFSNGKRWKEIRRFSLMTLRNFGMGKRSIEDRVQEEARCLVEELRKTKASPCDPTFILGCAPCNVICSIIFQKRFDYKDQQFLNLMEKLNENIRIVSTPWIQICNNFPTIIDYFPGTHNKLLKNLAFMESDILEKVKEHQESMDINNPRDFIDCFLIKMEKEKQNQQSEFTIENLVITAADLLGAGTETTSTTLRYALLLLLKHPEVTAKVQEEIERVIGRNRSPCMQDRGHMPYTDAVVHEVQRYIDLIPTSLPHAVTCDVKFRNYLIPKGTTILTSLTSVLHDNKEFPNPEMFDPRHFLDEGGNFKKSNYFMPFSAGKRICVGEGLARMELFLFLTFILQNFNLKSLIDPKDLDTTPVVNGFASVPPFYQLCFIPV

[11] = gavage 10 mg/kgbw, 21 days, n = 12
[12] = gavage 24 mg/kg/bw, 22 days, n = 10

CC(C)(CCCCCCCCCCCCC(C)(C)C(=O)O)C(=O)O [M16αα, 2,2,15,15-tetramethylhexadecane-1,16-dioic acid]
IC50 [1]: > 100 µM | inhibition at 0.05 μM ([2]; % Inhibition (set 1)): 4% | inhibition at 0.41 μM ([2]; % Inhibition (set 1)): 5% | inhibition at 1.23 μM ([2]; % Inhibition (set 1)): 2% | inhibition at 3.7 μM ([2]; % Inhibition (set 1)): 6% | inhibition at 11.11 μM ([2]; % Inhibition (set 1)): 15% | inhibition at 33.33 μM ([2]; % Inhibition (set 1)): 15% | inhibition at 100 μM ([2]; % Inhibition (set 1)): 29% | inhibition at 0.05 μM ([2]; % Inhibition (set 2)): 0% | inhibition at 0.41 μM ([2]; % Inhibition (set 2)): 5% | inhibition at 1.23 μM ([2]; % Inhibition (set 2)): 9% | inhibition at 3.7 μM ([2]; % Inhibition (set 2)): 0% | inhibition at 11.11 μM ([2]; % Inhibition (set 2)): 7% | inhibition at 33.33 μM ([2]; % Inhibition (set 2)): 14% | inhibition at 100 μM ([2]; % Inhibition (set 2)): 31% | IC50 [3]: > 100 µM | Liver/body weight % [4, 11]: 6.3 ± 0.1% | Weight gain [4, 11]: 201 ± 8 g | effect on plasma cholesterol [4]: pronounced decrease | effect on plasma triglycerides (TG) [4]: reduces; also recorded: decreases | effect on LDL-cholesterol levels ([4]; lipoprotein profile, FIG. 2, result in words): reduces | inhibition at 0.05 μM ([5]; % Inhibition (set 1)): 0% | inhibition at 0.41 μM ([5]; % Inhibition (set 1)): 7% | inhibition at 1.23 μM ([5]; % Inhibition (set 1)): 4% | inhibition at 3.7 μM ([5]; % Inhibition (set 1)): 29% | inhibition at 11.11 μM ([5]; % Inhibition (set 1)): 8% | inhibition at 33.33 μM ([5]; % Inhibition (set 1)): 17% | inhibition at 100 μM ([5]; % Inhibition (set 1)): 27% | inhibition at 0.05 μM ([5]; % Inhibition (set 2)): 2% | inhibition at 0.41 μM ([5]; % Inhibition (set 2)): 0% | inhibition at 1.23 μM ([5]; % Inhibition (set 2)): 3% | inhibition at 3.7 μM ([5]; % Inhibition (set 2)): 2% | inhibition at 11.11 μM ([5]; % Inhibition (set 2)): 8% | inhibition at 33.33 μM ([5]; % Inhibition (set 2)): 12% | inhibition at 100 μM ([5]; % Inhibition (set 2)): 28% | inhibition at 0.41 μM ([6]; % Inhibition (set 1)): 3% | inhibition at 100 μM ([6]; % Inhibition (set 1)): 23% | inhibition at 1.23 μM ([6]; % Inhibition (set 2)): 0% | inhibition at 3.7 μM ([6]; % Inhibition (set 2)): 0% | inhibition at 100 μM ([6]; % Inhibition (set 2)): 19% | IC50 [7]: > 100 µM | inhibition at 0.05 μM ([8]; % Inhibition (set 1)): 0% | inhibition at 0.41 μM ([8]; % Inhibition (set 1)): 1% | inhibition at 1.23 μM ([8]; % Inhibition (set 1)): 0% | inhibition at 3.7 μM ([8]; % Inhibition (set 1)): 4% | inhibition at 11.11 μM ([8]; % Inhibition (set 1)): 13% | inhibition at 33.33 μM ([8]; % Inhibition (set 1)): 23% | inhibition at 100 μM ([8]; % Inhibition (set 1)): 43% | inhibition at 0.05 μM ([8]; % Inhibition (set 2)): 0% | inhibition at 0.41 μM ([8]; % Inhibition (set 2)): 0% | inhibition at 1.23 μM ([8]; % Inhibition (set 2)): 0% | inhibition at 3.7 μM ([8]; % Inhibition (set 2)): 0% | inhibition at 11.11 μM ([8]; % Inhibition (set 2)): 0% | inhibition at 33.33 μM ([8]; % Inhibition (set 2)): 15% | inhibition at 100 μM ([8]; % Inhibition (set 2)): 38% | % Inhibition (set 1) ([9]; 0.05 μM): 5% | % Inhibition (set 2) ([9]; 0.05 μM): 1% | % Inhibition (set 1) ([9]; 3.7 μM): 1% | % Inhibition (set 1) ([9]; 33.33 μM): 4% | IC50 [10]: 46 µM

CC(C)(CCCCCCCCCCC(C)(C)CC(=O)O)CC(=O)O [M16ββ, 3,3,14,14-tetramethylhexadecane-1,16-dioic acid]
IC50 [1]: > 100 µM | inhibition at 0.05 μM ([2]; % Inhibition (set 1)): 0% | inhibition at 0.41 μM ([2]; % Inhibition (set 1)): 0% | inhibition at 1.23 μM ([2]; % Inhibition (set 1)): 3% | inhibition at 3.7 μM ([2]; % Inhibition (set 1)): 13% | inhibition at 11.11 μM ([2]; % Inhibition (set 1)): 19% | inhibition at 33.33 μM ([2]; % Inhibition (set 1)): 34% | inhibition at 100 μM ([2]; % Inhibition (set 1)): 50% | inhibition at 0.05 μM ([2]; % Inhibition (set 2)): 0% | inhibition at 0.41 μM ([2]; % Inhibition (set 2)): 3% | inhibition at 1.23 μM ([2]; % Inhibition (set 2)): 10% | inhibition at 3.7 μM ([2]; % Inhibition (set 2)): 8% | inhibition at 11.11 μM ([2]; % Inhibition (set 2)): 18% | inhibition at 33.33 μM ([2]; % Inhibition (set 2)): 26% | inhibition at 100 μM ([2]; % Inhibition (set 2)): 44% | IC50 [3]: > 100 µM | Liver/body weight % [4, 12]: 5.8 ± 0.2% | Plasma cholesterol [4, 12]: 31 ± 2.2 mg % | Weight gain [4, 12]: 173 ± 8.5 g | effect on plasma cholesterol [4]: small but significant decrease | effect on plasma triglycerides (TG) [4]: clear decrease | inhibition at 0.05 μM ([5]; % Inhibition (set 1)): 1% | inhibition at 0.41 μM ([5]; % Inhibition (set 1)): 1% | inhibition at 1.23 μM ([5]; % Inhibition (set 1)): 4% | inhibition at 3.7 μM ([5]; % Inhibition (set 1)): 0% | inhibition at 11.11 μM ([5]; % Inhibition (set 1)): 5% | inhibition at 33.33 μM ([5]; % Inhibition (set 1)): 7% | inhibition at 100 μM ([5]; % Inhibition (set 1)): 20% | inhibition at 0.05 μM ([5]; % Inhibition (set 2)): 0% | inhibition at 0.41 μM ([5]; % Inhibition (set 2)): 0% | inhibition at 1.23 μM ([5]; % Inhibition (set 2)): 4% | inhibition at 3.7 μM ([5]; % Inhibition (set 2)): 0% | inhibition at 11.11 μM ([5]; % Inhibition (set 2)): 6% | inhibition at 33.33 μM ([5]; % Inhibition (set 2)): 7% | inhibition at 100 μM ([5]; % Inhibition (set 2)): 19% | inhibition at 0.05 μM ([6]; % Inhibition (set 1)): 0% | inhibition at 0.41 μM ([6]; % Inhibition (set 1)): 0% | inhibition at 0.41 μM ([6]; % Inhibition (set 2)): 0% | inhibition at 100 μM ([6]; % Inhibition (set 2)): 15% | IC50 [7]: > 100 µM | inhibition at 0.05 μM ([8]; % Inhibition (set 1)): 8% | inhibition at 0.41 μM ([8]; % Inhibition (set 1)): 7% | inhibition at 1.23 μM ([8]; % Inhibition (set 1)): 4% | inhibition at 3.7 μM ([8]; % Inhibition (set 1)): 7% | inhibition at 11.11 μM ([8]; % Inhibition (set 1)): 15% | inhibition at 33.33 μM ([8]; % Inhibition (set 1)): 22% | inhibition at 100 μM ([8]; % Inhibition (set 1)): 46% | inhibition at 0.05 μM ([8]; % Inhibition (set 2)): 0% | inhibition at 0.41 μM ([8]; % Inhibition (set 2)): 0% | inhibition at 1.23 μM ([8]; % Inhibition (set 2)): 0% | inhibition at 3.7 μM ([8]; % Inhibition (set 2)): 0% | inhibition at 11.11 μM ([8]; % Inhibition (set 2)): 9% | inhibition at 33.33 μM ([8]; % Inhibition (set 2)): 23% | inhibition at 100 μM ([8]; % Inhibition (set 2)): 46% | % Inhibition (set 2) ([9]; 1.23 μM): 12% | % Inhibition (set 2) ([9]; 3.7 μM): 2% | IC50 [10]: > 100 µM
